We go through one substance from patent publication EP4623928A1, “GLP-1R ANTAGONISTS FOR THE TREATMENT OF CANCER” (Fiorina, Paolo, priority 2024, dated 2025).

Assay [1] has as its system mitogen-stimulated murine splenocytes. Briefly: IFN-γ ELISpot assay on anti-CD3/anti-CD28 stimulated splenocytes. It is filed as cell-based, C57BL/6 mice. Particulars: Exe-4 at 0.1, 1 or 10 nM, soluble anti-CD3 and anti-CD28, 24 hours. As to the method: An ELISPOT assay was used to measure the number of IFN-γ-producing cells according to the manufacturer's protocol (BD Biosciences) as previously performed by our group (39). To test the role of GLP-1R-driven immunity on the anti-CD3/28 non-autoimmune specific response, 1×10^6 splenocytes isolated from C57BL/6 mice were cultured in a microwell plate (BD Biosciences) coated with IFN-y capture antibody (Ab) in the presence of the following soluble anti-CD3 and anti-CD28 at 0,5ug/ml for 24 hours. Exe-4 and/or Exe-4+Exe-9-39 at concentrations of 0.1, 1 or 10 nM were added to the culture. After 24 hours, bound secondary Ab was visualized using HRP-streptavidin and the AEC substrate kit (BD Biosciences). Spots were counted using an Immunospot analyzer (Cellular Technology Ltd., Cleveland, OH) and expressed as the number of cytokine-producing spots per 1×10^6 cells. After 24hours, ELISpot plates were developed and acquired on an ELISpot reader, as previously described.

For assay [2], the system named is untransduced-mock and pmY-GLP-1R transduced CD3^+ T cells. In words: Transwell migration assay toward SDF-1, mock and pmY-GLP-1R transduced CD3+ T cells. It is filed as cell-based, murine. Particulars: both untransduced-mock and pmY-GLP-1R transduced CD3^+ T cells, Exe-4 (1 nM). As to the method: Transwell migration assays were performed on GLP-1R^pos and GLP-1R^neg CD3^+ cells or respectively untransduced-mock CD3^+ T cells or pmY-GLP-1R transduced CD3^+ T cells, freshly isolated or activated with anti-CD3/CD28 (0.5 µg /ml each) in the presence or not of Exe-4 (1 nM). Chemotaxis assessments via transwell migration assay were performed using polycarbonate membranes with 5 µm pores (Corning) in accordance with the manufacturer's instructions and as previously published (42). Cells were washed, re-suspended in migration media (RPMI), and added to the upper chamber of the plate, while migration media containing 0 or 50 ng/mL SDF-1 (R&D Systems) was added to the bottom chamber. Treated cells were incubated over night at 37°C to migrate through the polycarbonate membrane into the bottom chamber. Input cell counts were obtained by flow cytometry with a BD FACSCelesta (BD, Biosciences) as well as cell counts of migrated cells in the lower chambers. Migration percentage was calculated as the number of cells in the lower chamber (migrated) compared to total input cell count for three separate wells. Mean migration percentages and standard deviations (SD) were calculated across the different donor cell lots. Analysis of lower chambers without SDF-1 (negative gradients) was used to control for any nonspecific increase in chemotaxis.

The subject of assay [3] is Cardiac allografts. In words: Murine cardiac allotransplantation (BALB/c hearts into C57BL/6 mice). The format is in vivo. As to the method:
Cardiac allografts from BALB/c mice were transplanted intra-abdominally in C57BL/6 mice using microsurgical techniques as described (31). Rejection was determined as complete cessation of cardiac contractility and was confirmed by direct visualization. Transplanted mice were intraperitoneally injected according to the following protocols: 1) Exendin-4 (Exe-4) (Amylin Pharmaceuticals, San Diego, CA - USA) 0.2pg twice/day for two weeks after transplant; 2) Exe-4 0.2pg twice/day from the day before until two weeks after transplant; 3) Exe-4 2µg twice/day from the day before until two weeks after transplant; 4) Exe-4 2µg twice/day + Exendin-9-39 (Exe-9) (Sigma-Aldrich) 2µg twice/day from the day before until two weeks after transplant; 5) Exe-4 2µg twice/day from the day before until two weeks after transplant + Rapamycin 0.1mg/die for two weeks; 6) saline 0.5ml twice/day for two weeks.

For assay [4], the system named is GLP-1R^pos and GLP-1R^neg CD3^+ T cells. Briefly: Seahorse bioenergetic analysis, GLP-1Rpos and GLP-1Rneg CD3+ T cells. Particulars: GLP-1R^pos CD3^+ T cells, Exe-4 (1 nM). The format is cell-based, C57BL/6 mice. As to the method: Cellular Bioenergetics were analyzed using the Seahorse Extracellular Flux Analyzer Xfe96 (Agilent Technologies, Santa Clara, CA, United States), which simultaneously measures Oxygen Consumption Rate (OCR, pmolO2/min), ExtraCellular Acidification Rate (ECAR, mpH/min) and Proton Efflux Rate (PER, pmolH^+/min). For Seahorse experiments 150.000 cells either freshly isolated GLP-1R^pos or GLP-1R^neg CD3^+ T cells or activated with soluble anti-CD3/CD28 at 0.5 µg/ml each in the presence or not of Exe-4 (1 nM); in another setting untransduced mock CD3^+ T cells or pmY-GLP-1R CD3^+ T cells already activated with soluble anti-CD3/CD28 at 0.5 µg/ml each in the presence or not of Exe-4 (1 nM). Cells were resuspended in 50 µL assay medium (Agilent #103576-100 RPMI Medium pH7.4, supplemented with 10mM glucose, 2mM glutamine and 1mM Na-pyruvate) were seeded in each CellTak-precoated well of an Agilent Xfe96 Pro well plate. The cell plate was centrifuged 2 times at 40 × g (zero braking) for 1 minute. After centrifugation, 150 µL warm assay medium was gently added to each well. […]
Seahorse parameters were normalized to cell number in each well. To this purpose, at the end of the Seahorse analysis, cell nuclei were stained with Hoechst 33342 (1 µg/mL) for about 15 min, imaged and counted with Operetta CLS™ software Harmony, as previously described (43). […]

Consider Exendin-4 [Exe-4], for which the “number of IFN-y producing cells” value in assay [1] is on record as “significantly reduced”. The “migratory ability in response to SDF-1” value in assay [2] is reported as “reduced”. In assay [3] (day-7 heart allograft, Exe-4-treated mice), the “graft infiltration (Hematoxylin and eosin staining)” value is “decrease of graft infiltration”. The “[MST] (cardiac allograft survival)” value in assay [3] (first of three Exe-4 regimens listed 'respectively' (low or high dose, preceded or not with pre-treatment), untreated [MST]=7 days, p<0.01) was 9 days. For the same substance, the “[MST] (cardiac allograft survival)” value in assay [3] (second of three Exe-4 regimens listed 'respectively', p<0.01 vs untreated) worked out at 10 days. Further, in assay [3] (splenic, Exe-4-treated mice), the “CD4^+ and CD8^+ effector T cells” value is given as “significant decrease”; the Tregs result is on record as “no effect”. In assay [3] (third of three Exe-4 regimens listed 'respectively', p<0.01 vs untreated), the “[MST] (cardiac allograft survival)” value is recorded as 10 days. In addition, in assay [4], the “mitochondrial ATP production” value is on record as “no effect” and the “mitochondrial respiration (OCR values, maximal OXPHOS)” value is given as “slightly increased”.
